The values that follow come from patent publication EP4803094A2, “GLP-1/GIP DUAL, GLP-1/GCG DUAL AND GLP-1/GIP/GCG TRIPLE RECEPTOR AGONISTS” (Sun Pharmaceutical Industries Limited, priority 2023, dated 2024).

Marks after values point to notes of the source that are not given here.

For assay [1], the system named is Rats. Put plainly: Oral Glucose Tolerance Test (OGTT) in rats, single injection (blood glucose AUC, body weight, food consumption). It counts as in vivo. The conditions noted are these: for Food Consumption (g) / Body weight change (%): 30 nM/kg s.c.; for Food Consumption (g): 0-12 hr; for Food Consumption (g) / Body weight change (%) / Blood Glucose AUC(0-120min) Mean: mean (n=4); for Blood Glucose AUC(0-120min) Mean: OGTT 2 g/kg glucose orally, 24 hr post subcutaneous injection of 30 nM/kg; for % Change in Blood glucose AUC(0-120min) vs placebo control: OGTT 24 hr post subcutaneous injection of 30 nM/kg. The procedure:
Animals were divided into 6 groups (n=4/group): a placebo control group, Compound 17, (30 nM/kg), Compound 18 (30 nM/kg), Compound 19 (30 nM/kg), Compound 20 (30 nM/kg), and Retatrutide (30 nM/kg). Animals were fasted for 12 hours before initiation of OGTT. After 24 hours of subcutaneous injection of tests or Retatrutide, blood glucose was measured with blood glucometer (time 0 measurement). All the animals were given 2 g/kg of glucose solution orally. Blood glucose was measured at 10, 20, 40, 60, 90, and 120 min following glucose challenge. Body weight and food consumption were recorded at 12 hr, 48 hr and 72 hr.

Assay [2] concerns Rats. Described as above. Conditions: 30 nM/kg s.c., mean (n=4); for Body weight change (%): 24 hr. It counts as in vivo.
Assay [3] has as its target T1, GIPR (UniProt P48546 22-466, limits assumed).
T1 sequence (looked up): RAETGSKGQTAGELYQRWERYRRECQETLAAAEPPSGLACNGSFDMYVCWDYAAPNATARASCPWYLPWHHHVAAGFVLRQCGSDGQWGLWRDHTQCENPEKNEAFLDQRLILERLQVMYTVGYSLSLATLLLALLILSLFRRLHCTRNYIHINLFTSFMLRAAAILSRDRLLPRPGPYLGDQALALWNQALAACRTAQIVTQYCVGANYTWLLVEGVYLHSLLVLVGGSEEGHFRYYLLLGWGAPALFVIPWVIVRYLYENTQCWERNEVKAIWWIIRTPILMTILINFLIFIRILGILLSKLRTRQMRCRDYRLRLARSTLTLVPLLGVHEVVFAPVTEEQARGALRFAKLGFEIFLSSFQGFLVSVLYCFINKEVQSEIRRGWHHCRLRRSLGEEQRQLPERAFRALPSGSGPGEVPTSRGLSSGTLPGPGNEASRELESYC
In words: cell-based or functional assay.

In assay [4] the target is GCGR (UniProt P47871 26-477, limits assumed). In words: cell-based or functional assay.
The target in assay [5] is GLP-1R (UniProt P43220 24-463, limits assumed). In words: cell-based or functional assay.

GCGR, sequence (P47871 26-477 limits assumed): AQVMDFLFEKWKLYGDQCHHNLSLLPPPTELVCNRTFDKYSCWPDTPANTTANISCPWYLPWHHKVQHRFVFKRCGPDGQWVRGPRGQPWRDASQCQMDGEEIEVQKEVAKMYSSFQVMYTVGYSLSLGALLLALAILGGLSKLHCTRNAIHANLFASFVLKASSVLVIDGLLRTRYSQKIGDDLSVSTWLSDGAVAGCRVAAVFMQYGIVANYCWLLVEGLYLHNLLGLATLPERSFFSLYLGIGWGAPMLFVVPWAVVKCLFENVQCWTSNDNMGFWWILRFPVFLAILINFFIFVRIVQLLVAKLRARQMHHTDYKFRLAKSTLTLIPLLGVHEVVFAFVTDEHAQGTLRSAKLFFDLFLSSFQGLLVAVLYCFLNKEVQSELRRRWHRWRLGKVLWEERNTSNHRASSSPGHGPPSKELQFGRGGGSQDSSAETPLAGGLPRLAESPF

For the molecule `CC[C@H](C)[C@H](NC(=O)[C@H](Cc1ccccc1)NC(=O)[C@H](C)NC(=O)C(C)(C)NC(=O)[C@H](CCC(N)=O)NC(=O)[C@H](C)NC(=O)[C@H](CCCCNC(=O)COCCOCCNC(=O)NCCCCNC(=O)CC[C@H](NC(=O)CCCCCCCCCCCCCCCCCCC(=O)O)C(=O)O)NC(=O)[C@H](CCCCN)NC(=O)[C@H](CC(=O)O)NC(=O)[C@H](CC(C)C)NC(=O)[C@](C)(CC(C)C)NC(=O)[C@@H](NC(=O)[C@H](CO)NC(=O)[C@H](Cc1ccc(O)cc1)NC(=O)[C@H](CC(=O)O)NC(=O)[C@H](CO)NC(=O)[C@@H](NC(=O)[C@H](Cc1ccccc1)NC(=O)[C@@H](NC(=O)CNC(=O)[C@H](CCC(N)=O)NC(=O)C(C)(C)NC(=O)[C@@H](N)Cc1ccc(O)cc1)[C@@H](C)O)[C@@H](C)O)[C@@H](C)CC)C(=O)N[C@@H](CCC(=O)O)C(=O)N[C@@H](Cc1ccc(O)cc1)C(=O)N[C@@H](CC(C)C)C(=O)N[C@@H](CC(C)C)C(=O)N[C@@H](CCC(=O)O)C(=O)NCC(=O)NCC(=O)N1CCC[C@H]1C(=O)N[C@@H](CO)C(=O)N[C@@H](CO)C(=O)NCC(=O)N[C@@H](C)C(=O)N1CCC[C@H]1C(=O)N1CCC[C@H]1C(=O)N1CCC[C@H]1C(=O)N[C@@H](CO)C(N)=O` [Compound 20], the “Food Consumption (g)” value in assay [1] is listed as 1.6*** g; in assay [2] (24-48 hr), 12.8*** g; in assay [2] (24-72 hr), 33.1*** g. For the same molecule, the “Body weight change (%)” value in assay [1] (48 hr) is recorded as -4.6*** %; in assay [1] (72 hr), -2.7*** %; in assay [2], -6.0*** %. Moreover, the “Blood Glucose AUC(0-120min) Mean” value in assay [1] was 4472.5***. Also, the “% Change in Blood glucose AUC(0-120min) vs placebo control” value (from here on “% Change in Blood glucose AUC(0-120min)”) in assay [1] is -53.76%.
Consider `CCC[C@H](NC(=O)[C@@H](NC(=O)[C@H](CO)NC(=O)[C@H](Cc1ccc(O)cc1)NC(=O)[C@H](CC(=O)O)NC(=O)[C@H](CO)NC(=O)[C@@H](NC(=O)[C@H](Cc1ccccc1)NC(=O)[C@@H](NC(=O)CNC(=O)[C@H](CCC(N)=O)NC(=O)C(C)(C)NC(=O)[C@@H](N)Cc1ccc(O)cc1)[C@@H](C)O)[C@@H](C)O)[C@@H](C)CC)C(=O)N[C@@H](CC(C)C)C(=O)N[C@@H](CC(=O)O)C(=O)N[C@@H](CCCCN)C(=O)N[C@@H](CCCCNC(=O)COCCOCCNC(=O)C(C)(C)NC(=O)CC[C@H](NC(=O)CCCCCCCCCCCCCCCCCCC(=O)O)C(=O)O)C(=O)N[C@@H](C)C(=O)N[C@@H](CCC(N)=O)C(=O)NC(C)(C)C(=O)N[C@@H](C)C(=O)N[C@@H](Cc1ccccc1)C(=O)N[C@H](C(=O)N[C@@H](CCC(=O)O)C(=O)N[C@@H](Cc1ccc(O)cc1)C(=O)N[C@@H](CC(C)C)C(=O)N[C@@H](CC(C)C)C(=O)N[C@@H](CCC(=O)O)C(=O)NCC(=O)NCC(=O)N1CCC[C@H]1C(=O)N[C@@H](CO)C(=O)N[C@@H](CO)C(=O)NCC(=O)N[C@@H](C)C(=O)N1CCC[C@H]1C(=O)N1CCC[C@H]1C(=O)N1CCC[C@H]1C(=O)N[C@@H](CO)C(N)=O)[C@@H](C)CC` [Compound 17], for which the figures for the “Food Consumption (g)” value in assay [1], in assay [2] (24-48 hr) and in assay [2] (24-72 hr) were 1.4*** g, 15.8*** g and 31.3*** g, respectively. Also, the entries for the “Body weight change (%)” value in assay [1] (48 hr), in assay [1] (72 hr) and in assay [2] were -5.0*** %, -3.3*** % and -6.8*** %, respectively. In assay [1], the “Blood Glucose AUC(0-120min) Mean” value is 4771.3***. Moreover, the “% Change in Blood glucose AUC(0-120min)” value in assay [1] is -50.67%.
On to `CC[C@H](C)[C@H](NC(=O)[C@H](Cc1ccccc1)NC(=O)[C@H](C)NC(=O)C(C)(C)NC(=O)[C@H](CCC(N)=O)NC(=O)[C@H](C)NC(=O)[C@H](CCCCNC(=O)COCCOCCNC(=O)NCCCCNC(=O)CC[C@H](NC(=O)CCCCCCCCCCCCCCCCC(=O)O)C(=O)O)NC(=O)[C@H](CCCCN)NC(=O)[C@H](CC(=O)O)NC(=O)[C@H](CC(C)C)NC(=O)[C@](C)(CC(C)C)NC(=O)[C@@H](NC(=O)[C@H](CO)NC(=O)[C@H](Cc1ccc(O)cc1)NC(=O)[C@H](CC(=O)O)NC(=O)[C@H](CO)NC(=O)[C@@H](NC(=O)[C@H](Cc1ccccc1)NC(=O)[C@@H](NC(=O)CNC(=O)[C@H](CCC(N)=O)NC(=O)C(C)(C)NC(=O)[C@@H](N)Cc1ccc(O)cc1)[C@@H](C)O)[C@@H](C)O)[C@@H](C)CC)C(=O)N[C@@H](CCC(=O)O)C(=O)N[C@@H](Cc1ccc(O)cc1)C(=O)N[C@@H](CC(C)C)C(=O)N[C@@H](CC(C)C)C(=O)N[C@@H](CCC(=O)O)C(=O)NCC(=O)NCC(=O)N1CCC[C@H]1C(=O)N[C@@H](CO)C(=O)N[C@@H](CO)C(=O)NCC(=O)N[C@@H](C)C(=O)N1CCC[C@H]1C(=O)N1CCC[C@H]1C(=O)N1CCC[C@H]1C(=O)N[C@@H](CO)C(N)=O` [Compound 19], for which the entries for the “Food Consumption (g)” value in assay [1], in assay [2] (24-48 hr) and in assay [2] (24-72 hr) were 1.3*** g, 7.2*** g and 17.0*** g, respectively. The “Body weight change (%)” value in assay [1] (48 hr) is -4.9*** %; in assay [1] (72 hr), -2.6*** %; in assay [2], -6.3*** %. In addition, the “Blood Glucose AUC(0-120min) Mean” value in assay [1] was 3848.8***. Besides, in assay [1], the “% Change in Blood glucose AUC(0-120min)” value is recorded as -60.20%.

B1: Compound 12 (peptide)
peptide: YXQGTFTSDYSIXLDKXAQXAFIEYLLEGGPSSGAPPPS
modifications: Aib at 2; αMethyl-Leu at 13; Lys 17 ε-amino acylated with Moiety A; Aib at 20; C-terminal amide (Rink amide resin)
B1: the “EC50 value, cellular cAMP assay (Hit Hunter cAMP)” value (from here on “EC50 value, cellular cAMP assay”) in assay [3] worked out at 12 nM; in assay [4], 6.99 nM; in assay [5], 12 nM.

B2: Compound 13 (peptide)
peptide: YXQGTFTSDYSIXLDKXAQXAFIEYLLEGGPSSGAPPPS
modifications: Aib at 2; αMethyl-Leu at 13; Lys 17 ε-amino acylated with Moiety B; Aib at 20; C-terminal amide
With B2, the entries for the “EC50 value, cellular cAMP assay” value in assay [3], in assay [4] and in assay [5] were more than 1.5 nM, more than 1.8 nM and more than 2.4 nM, respectively.

B3: Compound 17 (peptide)
peptide: YXQGTFTSDYSIXLDKXAQXAFIEYLLEGGPSSGAPPPS
modifications: Aib at 2; norvaline at 13; Lys 17 ε-amino acylated with Moiety B; Aib at 20; C-terminal amide
Turning to B3, the “EC50 value, cellular cAMP assay” value in assay [3] amounted to 0.0115 nM; in assay [4], 0.0133 nM; in assay [5] it was 0.0087 nM.

B4: Compound 14 (peptide)
peptide: YXQGTFTSDYSIXLDKXAQXAFIEYLLEGGPSSGAPPPS
modifications: Aib at 2; norleucine at 13; Lys 17 ε-amino acylated with Moiety B; Aib at 20; C-terminal amide
Consider B4, for which the “EC50 value, cellular cAMP assay” value came to 24 nM in assay [3], 20.9 nM in assay [4] and 8.54 nM in assay [5].

B5: Compound 18 (peptide)
peptide: YXQGTFTSDYSIXLDKXAQXAFIEYLLEGGPSSGAPPPS
modifications: not fully specified; Aib at 2; norvaline at 13; Lys 17 ε-amino acylated with Moiety G; Aib at 20; C-terminal amide
Take B5: the “EC50 value, cellular cAMP assay” value in assay [3] was 0.0227 nM; in assay [4] it was 0.193 nM; in assay [5] it was 0.0173 nM.

B6: Compound 20 (peptide)
peptide: YXQGTFTSDYSIXLDKXAQXAFIEYLLEGGPSSGAPPPS
modifications: Aib at 2; αMethyl-Leu at 13; Lys 17 ε-amino acylated with Moiety D; Aib at 20; C-terminal amide
For the molecule B6, the “EC50 value, cellular cAMP assay” value in assay [3] is 0.0181 nM; in assay [4], 0.14 nM; in assay [5], 0.0144 nM.

B7: Compound 19 (peptide)
peptide: YXQGTFTSDYSIXLDKXAQXAFIEYLLEGGPSSGAPPPS
modifications: Aib at 2; αMethyl-Leu at 13; Lys 17 ε-amino acylated with Moiety C; Aib at 20; C-terminal amide
For the molecule B7, the “EC50 value, cellular cAMP assay” value in assay [3] came to 0.0138 nM; in assay [4], 0.109 nM; in assay [5] it was 0.0116 nM.
